Reference: ChEMBL document CHEMBL5260799, “Pterocarpan scaffold: A natural lead molecule with diverse pharmacological properties” (Eur J Med Chem, 2017)
pEC50, pIC50: −log10 of the molar value. Converted amounts (≈) assume the structure as drawn.

Tests used:
MCF7 [1] = assay: Antiproliferative activity against human MCF7 cells assessed as inhibition of cell proliferation incubated for 72 hrs by MTT assay; assay type: functional, cell-based; details: MCF7, 72 h
Staphylococcus aureus [2] = assay: Antibacterial activity against Staphylococcus aureus ATCC 25923 assessed as bacterial growth inhibition by broth dilution method; assay type: functional, organism-based
Staphylococcus aureus [3] = assay: Antibacterial activity against methicillin-resistant Staphylococcus aureus ATCC 25923 assessed as bacterial growth inhibition by broth dilution method; assay type: functional, organism-based
Plasmodium falciparum [4] = assay: Antiplasmodial activity against Plasmodium falciparum D6 assessed as reduction in plasmodial growth after 48 hrs by fluorescence based analysis; assay type: functional, organism-based; details: D6, 48 h
Plasmodium falciparum [5] = assay: Antiplasmodial activity against Plasmodium falciparum W2 assessed as reduction in plasmodial growth after 48 hrs by fluorescence based analysis; assay type: functional, organism-based; details: W2, 48 h
RAW264.7 = assay: Antiinflammatory activity in mouse RAW264.7 cells assessed as inhibition of LPS-induced NO production at 50 uM measured after 24 hrs by Griess method; assay type: functional, cell-based; details: RAW264.7, 24 h
HL-60 [6] = assay: Antiproliferative activity against human HL-60 cells assessed as reduction in cell viability at 12.5 ug/ml by tryphan blue staining assay; assay type: functional; details: dose 12.5 µg/ml
[7] = Cytotoxicity against mouse RAW264.7 cells assessed as increase in NO production measured after 48 hrs by MTT assay; assay type: toxicity, cell-based
A2780 = assay: Antiproliferative activity against human A2780 cells assessed as reduction in cell viability incubated for 96 hrs by MTT assay; assay type: functional, cell-based; details: A2780, 96 h
DLD-1 = assay: Cytotoxicity against human DLD-1 cells assessed as reduction in cell proliferation incubated for 24 hrs by MTT assay; assay type: functional, cell-based; details: DLD-1, 24 h
HeLa = assay: Cytotoxicity against human HeLa cells assessed as reduction in cell proliferation incubated for 24 hrs by MTT assay; assay type: functional, cell-based
[8] = Antiproliferative activity against human PBMC cells assessed as reduction in cell viability at 10 microg/ml measured after 72 hrs by MTT assay; assay type: toxicity, cell-based; details: at 10 µg/mL
MOLT-4 = assay: Antiproliferative activity against human MOLT-4 cells assessed as reduction in cell proliferation measured after 24 hrs by MTT assay; assay type: functional, cell-based; details: MOLT-4, 24 h
K562 = assay: Antiproliferative activity against human K562 cells assessed as reduction in cell proliferation measured after 36 hrs by MTT assay; assay type: functional, cell-based; details: K562, 36 h
HL-60 [9] = assay: Antiproliferative activity against human HL-60 cells assessed as reduction in cell viability at 1.25 ug/ml by tryphan blue staining assay; assay type: functional; details: dose 1.25 µg/ml
HL-60 [10] = assay: Antiproliferative activity against human HL-60 cells assessed as reduction in cell proliferation measured after 36 hrs by MTT assay; assay type: functional, cell-based; details: HL-60, 36 h
MCF7 [11] = assay: Antiproliferative activity against human MCF7 cells assessed as growth inhibition measured after 48 hrs by CellTiter-Blue assay; assay type: functional, cell-based; details: MCF7, 48 h
HL-60 [12] = assay: Antiproliferative activity against human HL-60 cells assessed as reduction in cell viability at 2.5 ug/ml by tryphan blue staining assay; assay type: functional; details: dose 2.5 µg/ml
Jurkat = assay: Antiproliferative activity against human Jurkat cells assessed as reduction in cell proliferation measured after 24 hrs by MTT assay; assay type: functional, cell-based
[13] = test system: Mycobacterium tuberculosis; assay: Antimycobacterial activity against Mycobacterium tuberculosis H37Rv assessed as inhibition of bacterial growth by Microplate alamar blue assay; assay type: functional, organism-based
KB = assay: Cytotoxicity against human KB cells assessed as reduction in cell viability by colorimetric assay; assay type: functional, cell-based
Streptococcus agalactiae = assay: Antibacterial activity against Streptococcus agalactiae ATCC 12386 assessed as reduction in bacterial growth by microbroth dilution method; assay type: functional
Plasmodium falciparum [14] = assay: Antiplasmodial activity against Plasmodium falciparum K1 assessed as reduction in parasite growth by fluorescence based assay; assay type: functional, organism-based
Breast carcinoma cell = assay: Cytotoxicity against human Breast carcinoma cell assessed as reduction in cell viability by colorimetric assay; assay type: functional, cell-based
[15] = Inhibition of melanin in human melanocyte; assay type: functional, cell-based
Staphylococcus aureus [16] = assay: Antibacterial activity against methicillin-resistant Staphylococcus aureus assessed as bacterial growth inhibition; assay type: functional, organism-based
Mus musculus = species on record: Mus musculus; assay: Reduction in hepatic steatosis in HFD-induced C57BL/6J mouse model assessed as reduction in serum LDL level […]; assay type: functional, organism-based
CCRF-CEM = assay: Cytotoxicity against human CCRF-CEM cells assessed as reduction in cell viability incubated for 72 hrs by MTT assay; assay type: functional, cell-based
[17] = Antioxidant activity assessed as DPPH radical scavenging activity incubated for 20 mins by spectrometry method; assay type: functional
BMDC = assay: Anti-inflammatory activity against LPS-induced C57BL/6 mouse BMDC cells assessed as inhibition of IL-12 production at 25 uM by ELISA method; assay type: functional; set-up: scale not given: the % may be the effect or the level left
A549 = assay: Cytotoxicity against human A549 cells assessed as reduction in cell viability by SRB assay; assay type: functional, cell-based

COc1cc2c(cc1O)C1COC3C(=O)c4ccccc4C(=O)C3C1O2 (centres undefined)
pIC50 (MCF7 [1]): 5.11

COc1ccc2c(c1CC=C(C)C)O[C@H]1c3ccc(O)cc3OC[C@@]21OC [ERYTHRIBYSSIN A]
IC50 (Staphylococcus aureus [2]): 64 µg/mL (≈ 174 µM)
IC50 (Staphylococcus aureus [3]): 32 µg/mL (≈ 86.9 µM)

CC1(C)C=Cc2cc3c(cc2O1)OCC1c2ccc(O)cc2OC31 (centres undefined)
pIC50 (Plasmodium falciparum [4]): 4.71
pIC50 (Plasmodium falciparum [5]): 4.77

COc1ccc2c(c1OC)O[C@H]1c3ccc(O[C@H]4O[C@H](CO)[C@@H](O)[C@H](O)[C@H]4O)cc3OC[C@@H]21
pEC50 (RAW264.7): 4.83

O=C1c2ccccc2C(=O)C2C1OCC1c3cc(OCc4ccccc4)c(OCc4ccccc4)cc3OC12 (centres undefined)
pIC50 (MCF7 [1]): < 4.00

COc1ccc2c(c1)O[C@@H]1c3ccc(O)cc3OC[C@H]21
Activity (HL-60 [6]): 57.4%

O=C1c2ccccc2C(=O)C2C1OCC1c3cc(O)c(O)cc3OC12 (centres undefined)
pIC50 (MCF7 [1]): 3.94

CC(=O)/C(C)=C/c1c(O)ccc2c1O[C@H]1c3ccc(O)cc3OC[C@@H]21
IC50 at 48 h [7]: 19 µM

C=C(CO)[C@H]1Cc2cc3c(cc2O1)OC[C@H]1c2cc4c(cc2O[C@@H]31)OCO4
pIC50 (A2780): < 4.26

COc1cc2c(cc1O)[C@@H]1Oc3c(cc(OC)c(OC)c3O)[C@@H]1CO2 [BRANDISIANIN F]
pIC50 (DLD-1): < 4.60
pIC50 (HeLa): < 4.60

COc1ccc2c(c1)O[C@@H]1c3cc(OC)c(OC)cc3OC[C@H]21
inhibition at 72 h, 10 microg/ml [8]: 19%
IC50 (MOLT-4): 45.9 µg/mL (≈ 146 µM)
IC50 (K562): 2.8 µg/mL (≈ 8.91 µM)
Activity (HL-60 [9]): 34.4%
IC50 (HL-60 [10]): 2.5 µg/mL (≈ 7.95 µM)
pIC50 (MCF7 [11]): 5.10
Activity (HL-60 [12]): 42.6%
IC50 (Jurkat): > 10 µg/mL

CC(C)=CCc1cc2c(cc1O)OC[C@H]1c3ccc(O)c(CC=C(C)C)c3O[C@@H]21 [ERYBRAEDIN C]
IC50 [13]: 50 µg/mL (≈ 127 µM)
IC50 (KB): 5.1 µg/mL (≈ 13 µM)
MIC (Streptococcus agalactiae): 0.78 µg/mL (≈ 1.99 µM)
IC50 (Plasmodium falciparum [14]): 5.5 µg/mL (≈ 14 µM)
IC50 (Breast carcinoma cell): 2.9 µg/mL (≈ 7.39 µM)

COc1cc2c(cc1OCc1ccccc1)C1COC3C(=O)c4ccccc4C(=O)C3C1O2 (centres undefined)
pIC50 (MCF7 [1]): < 4.00

COc1ccc2c(c1OC)O[C@H]1c3ccc(O[C@H]4O[C@H](COC(C)=O)[C@@H](O)[C@H](O)[C@H]4O)cc3OC[C@@H]21
pEC50 (RAW264.7): 4.54

CC(C)=CCc1cc2c(cc1O)OC[C@H]1c3c4c(c(O)c(CC=C(C)C)c3O[C@@H]21)OC(C)(C)CC4
pIC50 [15]: 6.40

COc1cc2c(cc1O)OC1C2COC2C(=O)c3ccccc3C(=O)C21 (centres undefined)
pIC50 (MCF7 [1]): 5.28

COc1cc2c(cc1CC=C(C)C)[C@@H]1Oc3cc(O)ccc3[C@@H]1CO2
IC50 (Staphylococcus aureus [16]): 6.25 µg/mL (≈ 18.5 µM)

CC(C)(O)c1cc2cc3c(cc2o1)OC[C@@]1(O)c2ccc(O)cc2O[C@@H]31
pIC50 (Mus musculus): 4.70

CC(C)=CCc1c(O)c(C)cc2c1O[C@H]1c3cc4c(cc3OC[C@@H]21)OC(C)(C)C=C4 [LESPECYRTIN E5]
pIC50 [15]: 5.82

COc1ccc2c(c1CC=C(C)C)O[C@H]1c3ccc(O)cc3OC[C@@]21O [ERYTHRABYSSIN I]
pIC50 (CCRF-CEM): 5.47

COc1c(O)cc2c(c1OC)O[C@H]1c3ccc(O)cc3OC[C@@H]21
pIC50 [17]: 5.42

COc1cc2c(cc1OCc1ccccc1)OC1C2COC2C(=O)c3ccccc3C(=O)C21 (centres undefined)
pIC50 (MCF7 [1]): 4.56

COc1ccc2c(c1OC)OC1c3ccc(O)cc3OCC21 (centres undefined)
Activity (BMDC): 45%

CC1(C)Oc2cc3c(cc2CC1O)[C@@H]1Oc2cc(O)ccc2[C@@H]1CO3 (some centres undefined) [RAUTANDIOL A]
IC50 (A549): > 5 µg/mL

COc1c(O)cc2c(c1CC=C(C)C)O[C@H]1c3ccc(O)cc3OC[C@@H]21
pIC50 [15]: 5.84
